Tested on: diet induced obese mice (C57BL6)
Test: Diet induced obese mice, 10 days oral 30 mg/kg: body weight and serum cholesterol
Assay type: in vivo, mouse
Settings: DIO C57BL6 mice, 30 mg/kg oral gavage; for Cholesterol Change: serum
Protocol: Compounds were tested in diet induced obese mice (C57BL6) that were on a 65% high fat diet for 8-10 weeks. Mice were dosed for 10 days by oral gavage with 30 mg/kg of the compounds listed. Their body weights were recorded along with serum chemistries including cholesterol.

| Structure (SMILES) | Body Weight Change | Cholesterol Change |
| --- | --- | --- |
| CCN(CC)C/C=C\c1cc(F)ccc1S(=O)(=O)Nc1ccc2c(c1C(=O)O)OCCc1occc1-2 | −2.1% | No change |
| CCN(CC)C/C=C\c1cc(F)ccc1S(=O)(=O)Nc1ccc2c(ncc3occc32)c1C(=O)O | −16% | No change |

From patent publication US10064839B2, “Methods of treating liver diseases” (Zafgen, Inc., priority 2012, dated 2018)
